Results: patent US20240300991A1, “NUCLEOSIDE DERIVATIVE HAVING MULTI-TARGET KINASE INHIBITORY ACTIVITY AND PHARMACEUTICAL COMPOSITION FOR PREVENTING AND TREATING CANCER COMPRISING SAME” (FUTURE MEDICINE CO., LTD., priority 2021, published 2024)

Experiments:
[1] = test system: PC-3 (prostate cancer cells); experiment: Inhibitory activity against cancer cells (sulforhodamine B staining); type: cell-based; settings: 3 days, SRB staining
Protocol: (§1) In order to examine the anticancer activity of the nucleoside derivatives of the present invention synthesized in the Preparation Examples, the ICso of each of A549 (lung cancer cells), HCT116 (colon cancer cells), MDA-MB-231 (breast cancer cells), SK-Hep-1 (liver cancer cells), SNU638 (stomach cancer cells) and PC-3 (prostate cancer cells) against cancer cells was measured.
(§2) The test method is as follows. Cells were allowed to stand for 1 day and set as a control on day 0. Further, after a test material was added to the cells, the cells were allowed to stand for 3 days. Thereafter, the cells were stained with 1% acetic acid and 0.4% sulforhodamine B. The stained cells were dried and dissolved in 10 mM Tris (pH 10.0). Absorbance was measured at 515 nm, and the degree of cell division was determined using the following equation. After calculation as Cell division (%)=(average absorbancetest material−average absorbanceday 0)/(average absorbance control-average absorbanceday 0)×100, the degree of cell division was calculated through a non-linear regression analysis using Table Curve 2D v5.01 (Systat Software Inc., San Jose, CA, USA).

[2] = test system: HCT116 (colon cancer cells); experiment: as above; type: cell-based; settings: 3 days, SRB staining
Protocol: as §1, §2

[3] = test system: MDA-MB-231 (breast cancer cells); experiment: as above; type: cell-based; settings: 3 days, SRB staining
Protocol: as §1, §2

[4] = test system: SK-Hep-1 (liver cancer cells); experiment: as above; type: cell-based; settings: 3 days, SRB staining
Protocol: as §1, §2

[5] = test system: A549 (lung cancer cells); experiment: as above; type: cell-based; settings: 3 days, SRB staining
Protocol: as §1, §2

[6] = test system: SNU638 (stomach cancer cells); experiment: as above; type: cell-based; settings: 3 days, SRB staining
Protocol: as §1, §2

[7] = biological target: T1, DYRK1A (Homo sapiens, UniProt Q13627); experiment: Kinase inhibition test (DNA-tagged kinase, affinity resin, qPCR readout); type: binding; set-up: key: (−) indicates no effect; (+) indicates weak inhibitory activity; (++) indicates a moderate level of inhibitory activity; (+++) indicates strong inhibitory activity; settings: 1 μM of compound
T1 construct: made in house
From the text: (§3) In order to examine the inhibitory activity of the nucleoside derivatives of the present invention synthesized in the Preparation Examples against kinases, the nucleoside derivatives were confirmed to have inhibitory activity against neurotrophic tyrosine kinase receptor type 1 or tropomyosin receptor kinase A (NTRK1), casein kinase 1 isoform delta (CSNK1D), dual specificity tyrosine-phosphorylation-regulated kinase 1A (DYRK1A), dual specificity tyrosine-phosphorylation-regulated kinase 1B (DYRK1B) and receptor-type tyrosine-protein kinase or fms like tyrosine kinase 3 or cluster of differentiation antigen 135 (CD135) or fetal liver kinase-2 (Flk2) (FLT3).
(§4) The inhibition measurement method is as follows. Most of the kinases were produced by culturing a phage in which BL21 E. coli was tagged with a kinase at 32° C. until lysis, followed by centrifugation and filtration. Further, the kinases were produced using HEK-293 cells. Thereafter, the kinases were DNA tagged for qPCR. After an affinity resin was prepared by stirring a biotin-tagged substrate onto streptavidin-coated beads for 30 minutes, a non-specifically bound substrate was washed with a buffer (SeaBlock (Pierce), 1% BSA, 0.05% Tween 20, 1 mM DTT).
(§5) For a kinase test, the kinase, the substrate, the affinity resin, and a test material dissolved in dimethyl sulfoxide were stirred together in a buffer (20% SeaBlock, 0.17×PBS, 0.05% Tween20, and 6 mM DTT) at room temperature for 1 hour. Thereafter, an affinity substrate was washed with a buffer (1×PBS, 0.05% Tween20), and then suspended in an elution buffer (1×PBS, 0.05% Tween20, 0.5 μM non-biotinylated affinity ligand), and the resulting suspension was stirred. The concentration of the kinase was quantified by qPCR.

[8] = biological target: T2, NTRK1 (Homo sapiens, UniProt P04629); experiment: as above; type: binding; set-up: key: (−) indicates no effect; (+) indicates weak inhibitory activity; (++) indicates a moderate level of inhibitory activity; (+++) indicates strong inhibitory activity; settings: 1 μM of compound
T2 construct: made in house
T2 sequence (P04629 33-796): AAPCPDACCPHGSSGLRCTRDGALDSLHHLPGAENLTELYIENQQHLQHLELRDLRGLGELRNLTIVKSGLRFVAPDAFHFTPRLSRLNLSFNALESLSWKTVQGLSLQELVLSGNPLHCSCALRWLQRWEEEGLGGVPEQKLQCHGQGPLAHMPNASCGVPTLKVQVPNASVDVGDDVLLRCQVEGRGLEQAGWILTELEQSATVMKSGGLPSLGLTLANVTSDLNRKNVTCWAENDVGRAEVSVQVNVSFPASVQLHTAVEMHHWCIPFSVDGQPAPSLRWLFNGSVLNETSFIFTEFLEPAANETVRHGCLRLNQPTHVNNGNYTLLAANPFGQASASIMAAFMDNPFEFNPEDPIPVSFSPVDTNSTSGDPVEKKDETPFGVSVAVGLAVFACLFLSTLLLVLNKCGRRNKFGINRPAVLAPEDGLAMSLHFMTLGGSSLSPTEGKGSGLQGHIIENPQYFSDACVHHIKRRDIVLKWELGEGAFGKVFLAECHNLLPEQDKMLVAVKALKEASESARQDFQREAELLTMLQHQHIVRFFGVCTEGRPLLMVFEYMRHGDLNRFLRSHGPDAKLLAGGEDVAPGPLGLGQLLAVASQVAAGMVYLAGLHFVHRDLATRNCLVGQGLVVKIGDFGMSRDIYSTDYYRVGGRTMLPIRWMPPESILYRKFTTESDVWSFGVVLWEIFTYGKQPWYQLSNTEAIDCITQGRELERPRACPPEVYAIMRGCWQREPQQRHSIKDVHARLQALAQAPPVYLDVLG
From the text: as §3, §4, §5

[9] = biological target: T3, DYRK1B (Homo sapiens, UniProt Q9Y463); experiment: as above; type: binding; set-up: key: (−) indicates no effect; (+) indicates weak inhibitory activity; (++) indicates a moderate level of inhibitory activity; (+++) indicates strong inhibitory activity; settings: 1 μM of compound
T3 construct: made in house
T3 sequence (Q9Y463 whole entry): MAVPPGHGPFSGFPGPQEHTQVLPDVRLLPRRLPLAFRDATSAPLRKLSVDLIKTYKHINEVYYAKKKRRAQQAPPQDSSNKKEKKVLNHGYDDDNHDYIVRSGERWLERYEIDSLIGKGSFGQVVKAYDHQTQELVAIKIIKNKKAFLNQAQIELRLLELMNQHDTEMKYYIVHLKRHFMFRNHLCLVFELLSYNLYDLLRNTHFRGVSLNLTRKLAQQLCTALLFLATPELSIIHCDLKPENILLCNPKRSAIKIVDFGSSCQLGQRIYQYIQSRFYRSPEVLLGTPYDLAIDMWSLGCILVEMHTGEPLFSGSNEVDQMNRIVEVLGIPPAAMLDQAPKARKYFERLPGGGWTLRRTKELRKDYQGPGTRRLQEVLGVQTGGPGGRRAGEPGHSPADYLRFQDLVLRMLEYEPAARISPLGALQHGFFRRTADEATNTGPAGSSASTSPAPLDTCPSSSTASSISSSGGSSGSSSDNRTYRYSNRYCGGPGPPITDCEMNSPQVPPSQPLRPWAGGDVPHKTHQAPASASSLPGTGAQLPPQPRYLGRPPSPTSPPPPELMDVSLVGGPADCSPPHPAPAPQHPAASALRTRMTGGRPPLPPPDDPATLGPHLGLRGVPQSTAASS
From the text: as §3, §4, §5

[10] = biological target: T4, CSNK1D (Homo sapiens, UniProt P48730); experiment: as above; type: binding; set-up: key: (−) indicates no effect; (+) indicates weak inhibitory activity; (++) indicates a moderate level of inhibitory activity; (+++) indicates strong inhibitory activity; settings: 1 μM of compound
T4 construct: made in house
T4 sequence (P48730 whole entry): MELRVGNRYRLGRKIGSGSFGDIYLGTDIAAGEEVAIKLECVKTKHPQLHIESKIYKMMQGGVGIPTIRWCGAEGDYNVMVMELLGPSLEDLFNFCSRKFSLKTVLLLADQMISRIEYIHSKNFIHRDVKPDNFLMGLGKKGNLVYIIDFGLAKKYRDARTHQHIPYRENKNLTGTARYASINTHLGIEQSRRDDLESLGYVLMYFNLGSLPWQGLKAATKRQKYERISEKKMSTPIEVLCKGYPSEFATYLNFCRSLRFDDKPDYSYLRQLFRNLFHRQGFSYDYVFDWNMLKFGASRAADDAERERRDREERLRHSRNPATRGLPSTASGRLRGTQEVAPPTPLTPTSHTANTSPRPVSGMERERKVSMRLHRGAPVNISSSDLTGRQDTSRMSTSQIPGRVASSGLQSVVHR
From the text: as §3, §4, §5

| SMILES | IC50 [1] | IC50 [2] | IC50 [3] | IC50 [4] | IC50 [5] | IC50 [6] | DYRK1A inhibitory activity [7] | NTRK1 inhibitory activity [8] | DYRK1B inhibitory activity [9] | CSNK1D inhibitory activity [10] | IC50 ([1]; 72 h) | IC50 ([2]; Homo sapiens, HCT-116, 72 h) | IC50 ([3]; Homo sapiens, 72 h) | IC50 ([4]; Homo sapiens, SK-HEP1, 72 h) | IC50 ([5]; Homo sapiens, 72 h) | IC50 ([6]; Homo sapiens, SNU-638, 72 h) |
| --- | --- | --- | --- | --- | --- | --- | --- | --- | --- | --- | --- | --- | --- | --- | --- | --- |
| [N-]=[N+]=NC[C@H]1S[C@@H](n2cc(C(N)=O)c3c(N)ncnc32)[C@H](O)[C@@H]1O [Compound 9c] | 0.36 µM | 0.86 µM | 0.26 µM | 0.78 µM | 0.24 µM | 0.35 µM | +++ | +++ | +++ | +++ |  |  |  |  |  |  |
| N#Cc1cn([C@@H]2S[C@H](CN=[N+]=[N-])[C@@H](O)[C@H]2O)c2ncnc(N)c12 [Compound 9b] | 0.45 µM | 0.56 µM | 0.38 µM | 1.05 µM | 0.23 µM | 0.12 µM | +++ | +++ | +++ | +++ |  |  |  |  |  |  |
| CCC#Cc1cn([C@@H]2S[C@H](CO)[C@@H](O)[C@H]2O)c2ncnc(N)c12 [Compound 4b] | > 50 µM | > 50 µM | > 50 µM | > 50 µM | > 50 µM | > 50 µM | + | + | + | + |  |  |  |  |  |  |
| C#Cc1cn([C@@H]2S[C@H](COC(=O)c3ccc(OC)cc3)[C@@H](O)[C@H]2O)c2ncnc(N)c12 [Compound 7d] | 0.33 µM | 0.3 µM | 0.36 µM | 0.25 µM | 0.35 µM | 0.19 µM | ++ | ++ | ++ | ++ |  |  |  |  |  |  |
| N#Cc1cn([C@@H]2S[C@H](CNC(N)=O)[C@@H](O)[C@H]2O)c2ncnc(N)c12 [Compound 11aii] | 3.56 µM | 1.83 µM | 1.08 µM | 2.87 µM | 2.45 µM | 6.73 µM | ++ | ++ | ++ | ++ |  |  |  |  |  |  |
| C#Cc1cn([C@@H]2S[C@H](CO)[C@@H](O)[C@H]2O)c2nc(Cl)nc(N)c12 [Compound 14, (2R,3R,4S,5R)-2-(4-amino-2-chloro-5-ethynyl-7H-pyrrolo[2,3-d]pyrimidin-7-yl)-5-(hydroxymethyl)tetrahydrothiophene-3,4-diol] |  |  |  |  |  |  | +++ | ++ | +++ | ++ | 2.45 µM | 7.28 µM | 0.52 µM | 1.37 µM | 0.35 µM | 5.46 µM |
| N#Cc1cn([C@@H]2S[C@H](CO)[C@@H](O)[C@H]2O)c2ncnc(N)c12 [Compound 5, 4-amino-7-((2R,3R,4S,5R)-3,4-dihydroxy-5-(hydroxymethyl)tetrahydrothiophen-2-yl)-7H-pyrrolo[2,3-d]pyrimidine-5-carbonitrile] |  |  |  |  |  |  | +++ | ++ | ++ | ++ | 2.18 µM | 1.59 µM | 2.24 µM | 1.79 µM | 2.58 µM | 1.22 µM |
| C#Cc1cn([C@@H]2S[C@H](COC(=O)c3c(C)cccc3C)[C@@H](O)[C@H]2O)c2ncnc(N)c12 [Compound 7e] | 5.59 µM | 6.42 µM | 4.68 µM | 4.39 µM | 6.47 µM | 4.84 µM | ++ | +++ | ++ | ++ |  |  |  |  |  |  |
| NC(=O)c1cn([C@@H]2SC[C@@H](O)[C@H]2O)c2ncnc(N)c12 [Compound 13g] | 2.24 µM | 9.73 µM | 5.67 µM | 2.13 µM | 5.27 µM | 8.46 µM | ++ | +++ | +++ | +++ |  |  |  |  |  |  |
| C#Cc1cn([C@@H]2S[C@H](CNCC)[C@@H](O)[C@H]2O)c2ncnc(N)c12 [Compound 11b, (2R,3R,4S,5R)-2-(4-amino-5-ethynyl-7H-pyrrolo[2,3-d]pyrimidin-7-yl)-5-((ethylamino)methyl)tetrahydrothiophene-3,4-diol] |  |  |  |  |  |  | ++ | +++ | ++ | +++ | 14 µM | 12.8 µM | 14.5 µM | 13 µM | 12.2 µM | 10.8 µM |

Continued, values first:

| IC50 [1] | IC50 [2] | IC50 [3] | IC50 [4] | IC50 [5] | IC50 [6] | DYRK1A inhibitory activity [7] | NTRK1 inhibitory activity [8] | DYRK1B inhibitory activity [9] | CSNK1D inhibitory activity [10] | IC50 ([1]; 72 h) | IC50 ([2]; Homo sapiens, HCT-116, 72 h) | IC50 ([3]; Homo sapiens, 72 h) | IC50 ([4]; Homo sapiens, SK-HEP1, 72 h) | IC50 ([5]; Homo sapiens, 72 h) | IC50 ([6]; Homo sapiens, SNU-638, 72 h) | SMILES |
| --- | --- | --- | --- | --- | --- | --- | --- | --- | --- | --- | --- | --- | --- | --- | --- | --- |
| 7.01 µM | 3.38 µM | 5.16 µM | 2.74 µM | 2.91 µM | 4.12 µM | ++ | +++ | ++ | +++ |  |  |  |  |  |  | Nc1ncnc2c1c(-c1cccs1)cn2[C@@H]1SC[C@@H](O)[C@H]1O [Compound 13c] |
| 1.39 µM | 0.85 µM | 1.15 µM | 1.27 µM | 0.59 µM | 1.2 µM | ++ | ++ | ++ | ++ |  |  |  |  |  |  | C#Cc1cn([C@@H]2SC[C@@H](O)[C@H]2O)c2ncnc(N)c12 [Compound 13a] |
| 2.45 µM | 6.37 µM | 2.41 µM | 5.78 µM | 2.36 µM | 9.35 µM | ++ | ++ | +++ | ++ |  |  |  |  |  |  | N#Cc1cn([C@@H]2SC[C@@H](O)[C@H]2O)c2ncnc(N)c12 [Compound 13f] |
| 1.74 µM | 0.86 µM | 1.32 µM | 0.64 µM | 0.96 µM | 1.31 µM | +++ | ++ | +++ | ++ |  |  |  |  |  |  | Nc1ncnc2c1c(-c1ccco1)cn2[C@@H]1SC[C@@H](O)[C@H]1O [Compound 13b] |
| 5.34 µM | 2.84 µM | 5.33 µM | 5.11 µM | 4.33 µM | 3.54 µM | ++ | ++ | ++ | ++ |  |  |  |  |  |  | C=Cc1cn([C@@H]2SC[C@@H](O)[C@H]2O)c2ncnc(N)c12 [Compound 13e] |
| 9.9 µM | 4.31 µM | 5.93 µM | 7.81 µM | 6.83 µM | 5.66 µM | ++ | ++ | ++ | ++ |  |  |  |  |  |  | Nc1ncnc2c1c(-c1ccccc1)cn2[C@@H]1SC[C@@H](O)[C@H]1O [Compound 13d] |
